Measured values taken from patent US11733246B2, “Compositions, imaging, and therapeutic methods targeting folate receptor 1 (FOLR1)” (Indi Molecular, Inc., priority 2020, dated 2023).
Values joined by “and” are separate entries in the source; they are usually repeats but may differ in a detail not shown here. Identical values can stand only once. Numbered stars: 1 amine (or outer) side, 2 acyl side, 3 side chain; on linkers, the order of the positions; unused ones are H or OH. Bridge positions count the residues as written; N and C are the ends. Square brackets hold non-standard residues; d marks the D form. Triazole bridges read from a SMILES are 1,4-linked. Peptide text beside a SMILES is read from it. * marks the point of attachment. DOTA = O=C(O)CN1CCN(CC(=O)O)CCN(CC(=O)*)CCN(CC(=O)O)CC1; Pteroyl = Nc1nc2ncc(CNc3ccc(C(=O)*)cc3)nc2c(=O)[nH]1; Biotin = O=C1N[C@H]2[C@H](CS[C@H]2CCCCC(=O)*)N1; PEG10 = NCCOCCOCCOCCOCCOCCOCCOCCOCCOCCOCCC(=O)O; Butanoyl(4-(4-MePh)) = Cc1ccc(CCCC(=O)*)cc1; Lys(N3) = [N-]=[N+]=NCCCC[C@H](N)C(=O)O; γGlu = O=C(O)[C@H](CCC(=O)[*:2])N[*:1]; AEEEA = NCCOCCOCCOCC(=O)O; Pra = C#CC[C@H](N)C(=O)O

Legend:
[1] = molecular target: human serum albumin (Homo sapiens, UniProt P02768); conditions: read-out: affinity for human serum albumin; cited from earlier work
[2] = system: OVCAR3 FOLR1+ cells; assay: Flow cytometry binding to FOLR1 (+) cells; format: cell-based, human; conditions: for selectivity for FOLR1 (+) cells over FOLR1 (−) cells: OVCAR3 vs PC-3, flow cytometry
Protocol: (§1) Both the kyeet (SEQ ID NO:9) and hshta (SEQ ID NO:6)-derived biligands were tested by flow cytometry for binding to FOLR1 (+) and FOLR1 (−) cell lines (FIGS. 6 and 7). The human ovarian adenocarcinoma-derived cell line OVCAR3 has robust FOLR1 expression and was selected as the FOLR1 (+) cell line. The human prostate adenocarcinoma-derived cell line PC-3 was selected as a FOLR1 (−) cell line.
Competition at the cellular level was also probed.
Increasing the serum-bound fraction of the peptide may decrease first pass removal of the heterobiligand, and drive compound retention of tumor over kidney. Constructs bearing the known albumin binder 4-methylphenyl butyric acid (4-MPBA) were synthesized. These compounds were evaluated in vitro to verify binding fidelity to FOLR1. The modified heterobiligands were incubated at 400 nM with OVCAR3 and PC-3 cells for 20 minutes at 37° C. in complete media containing 20% FBS. They both bind to OVCAR3 FOLR1+ cells with similar binding affinities as the original heterobiligand studied (FIG. 14). […] Similar activity of these heterobiligands is anticipated in vivo.

[3] = system: OVCAR3 FOLR1+ cells; assay: Flow cytometry binding to FOLR1 (+) cells; format: cell-based, human; conditions: 40 nM of the test article
[4] = molecular target: T1, FOLR1 (Homo sapiens, UniProt P15328); assay: ELISA assay of FOLR1 binding; conditions: ELISA
T1 construct: His; purchased SinoBiological 11241-H08H
T1 sequence (P15328 25-234): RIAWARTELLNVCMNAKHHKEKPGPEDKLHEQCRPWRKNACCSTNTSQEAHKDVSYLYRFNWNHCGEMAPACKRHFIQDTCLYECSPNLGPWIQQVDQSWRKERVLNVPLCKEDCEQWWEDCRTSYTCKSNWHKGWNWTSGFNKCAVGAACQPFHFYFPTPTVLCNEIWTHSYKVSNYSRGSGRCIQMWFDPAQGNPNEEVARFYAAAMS
From the text: FIG. 5 is a diagram of ELISA assay of FOLR1 binding of heterobiligands.
Nonclinical studies were first conducted with Folate-hshta-PEG10-PEG10-K(Biotin), where Folate-hshta is the targeting heterobiligand, PEG10 is a deca(ethylene glycol) linker, and K(Biotin) is the detection label.

[5] = molecular target: T1, FOLR1; assay: Competition ELISA with folic acid; format: binding
Protocol: A competition experiment was conducted to further understand the binding kinetics of the lead heterobiligand (folate-hshta (SEQ ID NO:6) Nterm heterobiligand).
(§2) Nonclinical studies were first conducted with Folate-hshta-PEG10-PEG10-K(Biotin), where Folate-hshta is the targeting heterobiligand, PEG10 is a deca(ethylene glycol) linker, and K(Biotin) is the detection label. […] Cross reactivity with the murine folate receptor was also observed. […] In the merged image, purple puncta were observed indicating co-localization of internalized heterobiligand with early endosomes (Rab5a+ vesicles) in OVCAR3 cells.

[6] = system: PC3 FOLR1− cells; assay: Flow cytometry binding to FOLR1 (−) cells; format: cell-based, human
Protocol: as §1

[7] = system: OVCAR3 cells; assay: Cell internalization assay (acid wash, flow cytometry); format: cell-based, human
Protocol: FIG. 10 is a diagram of an assay for assessing cell internalization FOLR1 heterobiligands.
The folate-hshta (SEQ ID NO:6) Nterm heterobiligand was also evaluated in cell penetration imaging assays (FIG. 10). OVCAR3 and PC-3 cells were incubated with the test article at 37° C. for 1 hour. Flow cytometry analysis of the resulting treated cells indicated strong binding to FOLR1 (+) cells. To understand the proportion bound to the surface but not internalized, the cells were briefly washed with acid to liberate the non-internalized peptide.
as §2

[8] = system: OVCAR3 xenografts; assay: 177Lu FOLR1 radioligand therapy in OVCAR3 xenograft model; format: in vivo, mouse
Protocol: Water and food were provided ad libitum. […] Tumor growth was monitored by caliper measurements.
OVCAR3 tumor bearing mice were used to study FOLR1-directed radioligand therapy (RLT) for treatment of ovarian cancer. Animals were administered a single dose of heterobiligand (vehicle control) or 111, 37, 18.5, 9.25, or 3.7 MBq [^177Lu]DOTA-labeled heterobiligand. Mice received the dose intravenously (i.v.) via the tail vein. To monitor the effect of the RLT, tumor size measurements were taken twice weekly and body weights were measured.
The engraftment was allowed to expand until palpable tumor sizes ranging in size from 218-384 mm^3 were detected. […] These observed effects were consistant with radiation overdosing. […] The best response was observed using 9.25 MBq Lu-177 Heterobiligand (compound #2809).
Single dose treatments at 18.5 MBq/nmol specific activity. OVCAR3 mouse model was used. 10^7 cell tumors were implanted in the mice one month before administration of ^177Lu-#6305. Five mice each were administered Cold #6305, 9.25 MBq Lu177-#6305, and 14.8 MBq Lu177-#6305, and two mice were administered 29.6 MBq Lu177-#6305. Tumor growth and body weight were then monitored.
Female NSG mice were implanted subcutaneously with OVCAR3 cells. Once tumors reached volumes of 200 mm^3, the animals were treated with 177-Lu 7327. Three treatment arms of 9.25 MBq, 14.8 MBq, and 29.6 MBq were studied.
Female NSG mice were implanted subcutaneously with human OVCAR3 (FOLR+) ovarian cancer cells. Once tumors reached volumes of 200 mm^3, the animals were treated with Indi ^177Lu-7327. One treatment arm of 74 MBq and a control group of 0 MBq were studied (FIGS. 41 and 38A). […] The second dose was administered 21 days following the first dose. Statistically significant differential between treated and control was reached 24 days post-injection (three days following the second dose) for the 74 MBq arm. P values (* for p≤0.05, ** for p≤0.01) were determined by ordinary one-way ANOVA with Tukey's multiple comparisons test.

[9] = mouse, in vivo
Protocol: At endpoint, mice were sacrificed and plasma and tissues (tumor, kidney, liver, lung, muscle) were collected. Plasma samples were assayed for urea and creatinine biomarkers indicative of nephrotoxicity. Tissue samples were fixed in 10% buffered formalin, transferred to 70% ethanol, and embedded in paraffin for immunohistochemistry.
The heterobiligand dosed in these studies is Folate-hshta-PEG3-Lys(MPBA)-Lys(DOTA) (Compound #2809; SEQ ID NO:6)) labeled with ^177Lu. Plasma samples taken from tumor-bearing mice (at each dose) were assayed for biomarkers indicative of nephrotoxicity. These samples were compared to plasma taken from normal mice. Elevated urea levels in plasma could indicate kidney damage. Endogenous urea is converted to ammonia and carbon dioxide by the addition of urease. Berthelot's reagent reacts with the dissolved ammonia. The resulting green coloration can be used to back-calculate the amount of urea present in the original plasma sample.
Mouse plasma samples (five mice each from the 0 MBq control group, 3.7 MBq group, and 9.25 MBq group) taken at endpoint and normal mouse plasma were evaluated in urea assays to gain information on renal function. […]
In order to understand the toxicity-limiting tissues and organs, plasma was collected from the therapy studies and analyzed for blood urea nitrogen (BUN) and creatinine. […]

In the case of “GI48-GA: albumin-binding domain, fragment of protein G from Streptococcus strain GI48 (SEQ ID NO:33) (LAEAKVLANRELDKYGVSDYYKNLINNAKTVEGVKALIDEILAA)”, the Kd [1] is given as 1 nM.
With `C[C@H](O)[C@H]1NC(=O)[C@@H](CCC(=O)O)NC(=O)[C@@H](CCC(=O)O)NC(=O)[C@@H](Cc2ccc(O)cc2)NC(=O)[C@@H](CCCCN)NC(=O)[C@@H](NC(=O)[C@H](Cc2cn(CCOCCOCCOCCNC(=O)CC[C@H](NC(=O)c3ccc(NCc4cnc5nc(N)[nH]c(=O)c5n4)cc3)C(=O)O)nn2)NC(=O)CCOCCOCCOCCOCCOCCOCCOCCOCCOCCOCCNC(=O)CCOCCOCCOCCOCCOCCOCCOCCOCCOCCOCCNC(=O)CCCC[C@@H]2SC[C@@H]3NC(=O)N[C@@H]32)Cc2cn(nn2)CCCC[C@@H](C(N)=O)NC1=O` [folate-kyeet heterobiligand] the “selectivity for FOLR1 (+) cells over FOLR1 (−) cells” value [2] was “high selectivity for FOLR1 (+) cells” and the “selectivity for FOLR1 (+) cells” value [3] was “Virtually complete selectivity”.
With `C[C@H](O)[C@H]1NC(=O)[C@@H](Cc2c[nH]cn2)NC(=O)[C@@H](CO)NC(=O)[C@@H](Cc2c[nH]cn2)NC(=O)[C@@H](NC(=O)CC[C@H](NC(=O)c2ccc(NCc3cnc4nc(N)[nH]c(=O)c4n3)cc2)C(=O)O)Cc2cn(nn2)CCCC[C@@H](C(=O)NCCOCCOCCOCCOCCOCCOCCOCCOCCOCCOCCC(=O)NCCOCCOCCOCCOCCOCCOCCOCCOCCOCCOCCC(=O)N[C@@H](CCCCNC(=O)CCCC[C@@H]2SC[C@@H]3NC(=O)N[C@@H]32)C(N)=O)NC(=O)[C@@H](C)NC1=O` [Folate-hshta Nterm, Folate-hshta-PEG10-PEG10-K(Biotin)] ({Pteroyl-γGlu}-[Pra][dH][dS][dH][dT][dA][Lys(N3)][PEG10][PEG10]K(Biotin)-NH2; triazole 1-7) the “affinity relative to folate itself” value [4] was roughly 30 fold, the “displacement by exogenous folate in competitive ELISA” value [5] was “resilient to displacement by exogenous folate” and the “binding affinity of the heterobiligand in presence of folic acid” value ([5]; folic acid from 0 to 500 nM) was “virtually unchanged”. For the same compound, the “competition by folic acid” value ([5]; folic acid greater than 500 nM) was “partially compete away”, the “percentage of OVCAR3 cells binding” value ([2]; 0.1 μg/mL folate) was 57% and the “selectivity for FOLR1 (+) cells over FOLR1 (−) cells” value [2] was “high selectivity for FOLR1 (+) cells”. The “binding against OVCAR3 FOLR1+ cells” value ([2]; flow cytometry) was “Dose-dependent binding”, the “selectivity compared with commercially available FOLR1 antibody” value ([2]; flow cytometry) was “superior to a commercially available FOLR1 antibody” and the “binding against OVCAR3 FOLR1+ cells” value ([2]; flow cytometry, listed as lead heterobiligand) was “best binding”. The “displacement by exogenous folic acid at the cellular level” value ([2]; increasing exogenous folic acid, flow cytometry) was “more resilient to folic acid displacement than biotinylated folic acid”, the “percentage of OVCAR3 cells binding” value ([2]; no folate) was 76.6% and the “binding of PC3 FOLR1− cells” value [6] was “low non-specific binding”. The “percentage of positively stained cells” value ([7]; OVCAR3, 37° C. 1 hour, before acid treatment) was 73.4% and the “percentage of positively stained cells” value ([7]; OVCAR3, following acid treatment) was 54.2%.
With `Cc1ccc(CCCC(=O)NCCCC[C@H](NC(=O)COCCOCCOCCNC(=O)[C@@H]2CCCCn3cc(nn3)C[C@H](NC(=O)CC[C@H](NC(=O)c3ccc(NCc4cnc5nc(N)[nH]c(=O)c5n4)cc3)C(=O)O)C(=O)N[C@H](Cc3c[nH]cn3)C(=O)N[C@H](CO)C(=O)N[C@H](Cc3c[nH]cn3)C(=O)N[C@H]([C@H](C)O)C(=O)N[C@H](C)C(=O)N2)C(=O)N[C@@H](CCCCNC(=O)CN2CCN(CC(=O)O)CCN(CC(=O)O)CCN(CC(=O)O)CC2)C(N)=O)cc1` [^177Lu-#2809, metal not drawn] ({Pteroyl-γGlu}-[Pra][dH][dS][dH][dT][dA][Lys(N3)][AEEEA]K(Butanoyl(4-(4-MePh)))K(DOTA)-NH2; triazole 1-7) the “Comments (deaths / survival)” value ([8]; ^177Lu dose 0 (peptide alone), 3 mice) was “Sacrificed on day 24”, the “Comments (deaths / survival)” value ([8]; ^177Lu dose 0.1 mCi (3.7 MBq), 2 mice) was “Sacrificed on day 24” and the “Comments (deaths / survival)” value ([8]; ^177Lu dose 0.25 mCi (9.25 MBq), 2 mice) was “Sacrificed on day 24”. For the same compound, the “Comments (deaths / survival)” value ([8]; ^177Lu dose 0.5 mCi (18.5 MBq), 2 mice, listed as DOTA-Heterobiligand Albumin binder conjugate) was 1 mouse died on day 10 and 1 mouse died on day 13, the “Comments (deaths / survival)” value ([8]; ^177Lu dose 1 mCi (37 MBq), 2 mice) was 2 mice died on day 10 and the “Comments (deaths / survival)” value ([8]; ^177Lu dose 3 mCi (111 MBq), 3 mice, listed as DOTA-Heterobiligand Albumin binder conjugate) was 1 mouse died on day 5 and 2 mice died on day 4. The “BUN level relative to normal mice” value [9] was 1.5 times.
